Source: PubChem BioAssay AID2060337 (Molecular Pharmacology Branch, DTP, NCI, 2025)

Tested on: 832693-133-R-J1-PDC multi-cell spheroids, viability
Experiment: Anticancer human tumor 832693-133-R-J1-PDC patient-derived head and neck squamous carcinoma cell line growth inhibition [IpAb]
Conditions: for IC50: curve of first compound; for viability, T/C: stronger effect = lower value
Outline: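 Spheroids of 60% malignant cells, 25% HUVEC and 15% MSC were exposed to targeted agents combined with ipatasertib or abemaciclib. Doses started at or near clinical Cmax (10 microM when unknown) and fell in half-log steps.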

[1] = second compound 0.1 µM, first compound 0.0316 µM
[2] = second compound 0.1 µM, first compound 0.1 µM
[3] = second compound 0.1 µM, first compound 0.316 µM
[4] = second compound 0.1 µM, first compound 1 µM
[5] = second compound 0.1 µM, first compound 3.16 µM
[6] = second compound 0.1 µM, first compound 10 µM
[7] = second compound 0.316 µM, first compound 0.0316 µM
[8] = second compound 0.316 µM, first compound 0.1 µM
[9] = second compound 0.316 µM, first compound 0.316 µM
[10] = second compound 0.316 µM, first compound 1 µM
[11] = second compound 0.316 µM, first compound 3.16 µM
[12] = second compound 0.316 µM, first compound 10 µM
[13] = second compound 1 µM, first compound 0.0316 µM
[14] = second compound 1 µM, first compound 0.1 µM
[15] = second compound 1 µM, first compound 0.316 µM
[16] = second compound 1 µM, first compound 1 µM
[17] = second compound 1 µM, first compound 3.16 µM
[18] = second compound 1 µM, first compound 10 µM
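Further: spheroids exposed to the drugs for one week before the viability readout.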
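Wherever viability, T/C is given: 100% = DMSO vehicle control wells.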

`Cn1ncc(Cl)c1-c1cc(C(=O)NC(CN)Cc2cccc(F)c2)sc1Cl` (stereo not given) + CC(C)NCC(C(=O)N1CCN(c2ncnc3c2C(C)CC3O)CC1)c1ccc(Cl)cc1 showed an IC50 (second compound 0.1 µM) of 4960 nM, an IC50 (second compound 0.316 µM) of 4800 nM and an IC50 (second compound 1 µM) of 3750 nM. For the same compound, the IC50 (second compound 3.16 µM) was 4140 nM, the IC50 (second compound 10 µM) was 2630 nM and the viability, T/C [1] was 94.7%. The viability, T/C [2] was 87.5%, the viability, T/C [3] was 75.5% and the viability, T/C [4] was 61.1%. It also gave a viability, T/C [5] of 90.1%, a viability, T/C [6] of 0.23% and a viability, T/C [7] of 82.7%. It also gave a viability, T/C [8] of 73.1%, a viability, T/C [9] of 79.9% and a viability, T/C [10] of 63.2%. For the same compound, the viability, T/C [11] was 92.3%, the viability, T/C [12] was 0.22% and the viability, T/C [13] was 47.9%. The viability, T/C [14] was 59.8%, the viability, T/C [15] was 54.6% and the viability, T/C [16] was 56.6%. The viability, T/C [17] was 74.3%, the viability, T/C [18] was 0.2% and the viability, T/C (second compound 3.16 µM, first compound 0.0316 µM) was 50.1%. It also gave a viability, T/C (second compound 3.16 µM, first compound 0.1 µM) of 59.1%, a viability, T/C (second compound 3.16 µM, first compound 0.316 µM) of 66.1% and a viability, T/C (second compound 3.16 µM, first compound 1 µM) of 70.3%. For the same compound, the viability, T/C (second compound 3.16 µM, first compound 3.16 µM) was 80.8%, the viability, T/C (second compound 3.16 µM, first compound 10 µM) was 0.2% and the viability, T/C (second compound 10 µM, first compound 0.0316 µM) was 67.2%. For the same compound, the viability, T/C (second compound 10 µM, first compound 0.1 µM) was 73%, the viability, T/C (second compound 10 µM, first compound 0.316 µM) was 69.5% and the viability, T/C (second compound 10 µM, first compound 1 µM) was 73.8%. For the same compound, the viability, T/C (second compound 10 µM, first compound 3.16 µM) was 46.1% and the viability, T/C (second compound 10 µM, first compound 10 µM) was 0.24%.

`C=CCn1c(=O)c2cnc(Nc3ccc(N4CCN(C)CC4)cc3)nc2n1-c1cccc(C(C)(C)O)n1` + CCN1CCN(Cc2ccc(Nc3ncc(F)c(-c4cc(F)c5nc(C)n(C(C)C)c5c4)n3)nc2)CC1 showed an IC50 (second compound 0.01 µM) of 233 nM, an IC50 (second compound 0.0316 µM) of 246 nM and an IC50 (second compound 0.1 µM) of 138 nM. For the same compound, the IC50 (second compound 0.316 µM) was 134 nM, the IC50 (second compound 1 µM) was 2620 nM and the viability, T/C (second compound 0.01 µM, first compound 0.0316 µM) was 93.9%. It also gave a viability, T/C (second compound 0.01 µM, first compound 0.1 µM) of 66.6%, a viability, T/C (second compound 0.01 µM, first compound 0.316 µM) of 42.4% and a viability, T/C (second compound 0.01 µM, first compound 1 µM) of 28.9%. It also gave a viability, T/C (second compound 0.01 µM, first compound 3.16 µM) of 27.5%, a viability, T/C (second compound 0.01 µM, first compound 10 µM) of 13.9% and a viability, T/C (second compound 0.0316 µM, first compound 0.0316 µM) of 74.7%. It also gave a viability, T/C (second compound 0.0316 µM, first compound 0.1 µM) of 68%, a viability, T/C (second compound 0.0316 µM, first compound 0.316 µM) of 40.4% and a viability, T/C (second compound 0.0316 µM, first compound 1 µM) of 33.2%. It also gave a viability, T/C (second compound 0.0316 µM, first compound 3.16 µM) of 29.3%, a viability, T/C (second compound 0.0316 µM, first compound 10 µM) of 14.9% and a viability, T/C [1] of 65.9%. The viability, T/C [2] was 51.8%, the viability, T/C [3] was 41.6% and the viability, T/C [4] was 33.3%. For the same compound, the viability, T/C [5] was 30.9%, the viability, T/C [6] was 19.1% and the viability, T/C [7] was 53.4%. For the same compound, the viability, T/C [8] was 52.9%, the viability, T/C [9] was 47.9% and the viability, T/C [10] was 37.4%. For the same compound, the viability, T/C [11] was 35.2%, the viability, T/C [12] was 25% and the viability, T/C [13] was 61.9%. It also gave a viability, T/C [14] of 65.9%, a viability, T/C [15] of 56.7% and a viability, T/C [16] of 53.6%. For the same compound, the viability, T/C [17] was 51.6% and the viability, T/C [18] was 23.8%.

For `Cn1cnc2c(F)c(Nc3ccc(Br)cc3Cl)c(C(=O)NOCCO)cc21` + CCN1CCN(Cc2ccc(Nc3ncc(F)c(-c4cc(F)c5nc(C)n(C(C)C)c5c4)n3)nc2)CC1, the IC50 (second compound 0.01 µM) was 118 nM, the IC50 (second compound 0.0316 µM) was 49 nM and the IC50 (second compound 0.1 µM) was less than 9.49 nM. It also gave an IC50 (second compound 0.316 µM) of 15.3 nM, an IC50 (second compound 1 µM) of 170 nM and a viability, T/C (second compound 0.01 µM, first compound 0.00949 µM) of 62.4%. For the same compound, the viability, T/C (second compound 0.01 µM, first compound 0.03 µM) was 58.7%, the viability, T/C (second compound 0.01 µM, first compound 0.0949 µM) was 50.4% and the viability, T/C (second compound 0.01 µM, first compound 0.3 µM) was 41.3%. It also gave a viability, T/C (second compound 0.01 µM, first compound 0.949 µM) of 34%, a viability, T/C (second compound 0.01 µM, first compound 3 µM) of 14.1% and a viability, T/C (second compound 0.0316 µM, first compound 0.00949 µM) of 54.3%. The viability, T/C (second compound 0.0316 µM, first compound 0.03 µM) was 57.5%, the viability, T/C (second compound 0.0316 µM, first compound 0.0949 µM) was 44.5% and the viability, T/C (second compound 0.0316 µM, first compound 0.3 µM) was 35.5%. It also gave a viability, T/C (second compound 0.0316 µM, first compound 0.949 µM) of 29.1%, a viability, T/C (second compound 0.0316 µM, first compound 3 µM) of 13.4% and a viability, T/C (second compound 0.1 µM, first compound 0.00949 µM) of 47.2%. For the same compound, the viability, T/C (second compound 0.1 µM, first compound 0.03 µM) was 47.4%, the viability, T/C (second compound 0.1 µM, first compound 0.0949 µM) was 36.4% and the viability, T/C (second compound 0.1 µM, first compound 0.3 µM) was 32.1%. It also gave a viability, T/C (second compound 0.1 µM, first compound 0.949 µM) of 24.4%, a viability, T/C (second compound 0.1 µM, first compound 3 µM) of 12.6% and a viability, T/C (second compound 0.316 µM, first compound 0.00949 µM) of 54.7%. The viability, T/C (second compound 0.316 µM, first compound 0.03 µM) was 43.9%, the viability, T/C (second compound 0.316 µM, first compound 0.0949 µM) was 36.1% and the viability, T/C (second compound 0.316 µM, first compound 0.3 µM) was 34.8%. The viability, T/C (second compound 0.316 µM, first compound 0.949 µM) was 25.3%, the viability, T/C (second compound 0.316 µM, first compound 3 µM) was 15.1% and the viability, T/C (second compound 1 µM, first compound 0.00949 µM) was 64.6%. For the same compound, the viability, T/C (second compound 1 µM, first compound 0.03 µM) was 58.2%, the viability, T/C (second compound 1 µM, first compound 0.0949 µM) was 51.5% and the viability, T/C (second compound 1 µM, first compound 0.3 µM) was 47.9%. The viability, T/C (second compound 1 µM, first compound 0.949 µM) was 40.7% and the viability, T/C (second compound 1 µM, first compound 3 µM) was 28.2%.
